Experimental data taken from US20050267050A1, “Compositions and methods for treating mdma-induced toxicity” (YEDA RESEARCH AND DEVELOPMENT CO. LTD., priority 2002, published 2005).

Columns and labels:
Assay type in all cases: in vivo
G1 cDNA (mGAT1) = experiment: DD-PCR analysis of brain mRNA of MDMA-treated mice; design: key to Intensity of G1 cDNA band, MDMA, F. Cortex: − (lowest); ++ (highest); conditions: 2 hr
Method: (§1) Young adult male C57BI/6J mice (2-3 months old) were injected intraperitoneally with 0.25 ml saline (control) or saline containing MDMA (10 mg/kg). Unless otherwise indicated, mice were sacrificed 2 hr after drug treatment and frontal cortex and/or midbrain were rapidly dissected in ice-cold saline. The dissected brain tissue was frozen on dry ice, 0.5 ml Tri Reagent was added, and samples were stored at −70° C. Serotonin transporter knockout mice (−/−) (Bengel et al., 1998) were used when indicated.
Frontal cortex or midbrain samples frozen with Tri Reagent were crushed, 1 ml Tri Reagent was added and total RNA was isolated according to the manufacture's protocol. RNA samples were treated with RNase-free DNase I for 30 minutes at 37° C. and RNA quality and yield was verified on 1.2% formaldehyde agarose gel. First-strand cDNA was prepared from 0.5 μg total RNA as template and 0.8 μM (dT)12GC, (dT)12CC or oligo(dT)18 as a primer, using Superscript amplification kit. DD-PCR (differential display-PCR) was carried out in 20 μl total volume, and included 0.8 μM of one of the 3′ primers (dT)12GC, (dT)12CC or (dT)12, the arbitrary 5′ primer 5′-GGACAGCTTC-3′, 2.5 μM dNTP, 2.5 mM MgCl2, 2 μCi α-^33P-[dATP] (3000 Ci/mM), cDNA prepared from 50 ng total RNA, and 2.5 units of Taq DNA polymerase. […] An aliquot (6 μl) was analysed on a denatured DNA sequencing gel. […]

MC2, MG2 and MG4 cDNAs = experiment: Semi-quantitative RT-PCR of brain mRNA of MDMA-treated mice; conditions: FIG. 2B, MDMA 10 mg/kg i.p., 2 hr
mGAT1 protein = experiment: Western immunoblotting with anti-GAT1 antibodies, MDMA-treated mice; conditions: for GAT1 protein, fold of control: SERT knockout (−/−) mice; for Increase of GAT1 immunoreactivity: wild type mice
Method: as §1
Protein was isolated with Tri Reagent according to the protocol provided by the manufacturer. After precipitation with isopropanol, the protein pellet was washed three times with 0.3M guanidine hydrochloride and 95% ethanol, followed by washing with ethanol, dried, and dissolved in 10 M urea containing 50 mM dithiothreitol (DTT). Samples were kept at room temperature for 1 hr before boiling for 3 minutes, sonicated on ice for 2 minutes, and stored at −20° C. Protein concentration was determined with the micro BCA protein assay reagent kit. Samples of 30 μg protein run on SDS-PAGE (5% stacking gel and 8% or 10% separating gel), with Kaleidoscope pre-stained standard proteins as molecular weight markers. The proteins were transferred to nitrocellulose membranes preincubated for 2 hr in Tris-buffered saline (TBS) with 10% non-fat dry milk and 0.1% Tween 20, and incubated overnight at 4° C. or 2 hr at room temperature with anti-GAT1 antibodies (1:500 in TBS containing 5% non-fat dry milk). Membranes were then washed three times with TBS containing 0.1% Tween 20, incubated for 2 hr at room temperature with the second antibody, horseradish peroxidase coupled to F(ab)2 anti-rabbit IgG, washed four times with the same buffer, and subjected to ECL Western immublotting detection reagents.
It was essential to determine whether the MDMA-induced increase in mGAT1 mRNA was correlated with a similar change in protein level. […] These anti-GAT1 antibodies were also useful to verify MDMA effect on the expression of mGAT1 in the SERT knockout mice (−/−) that behaviorally are nonresponsive to MDMA (Bengel et al., 1998).

MG5 cDNA = experiment: DD-PCR analysis of brain mRNA of MDMA-treated mice; design: key: − (lowest); ++ (highest); conditions: MDMA one i.p. injection, 10 mg/kg, 2 hr
Method: as §1
(§2) Frontal cortex or midbrain samples frozen with Tri Reagent were crushed, 1 ml Tri Reagent was added and total RNA was isolated according to the manufacture's protocol. RNA samples were treated with RNase-free DNase I for 30 minutes at 37° C. and RNA quality and yield was verified on 1.2% formaldehyde agarose gel. First-strand cDNA was prepared from 0.5 μg total RNA as template and 0.8 μM (dT)12GC, (dT)12CC or oligo(dT)18 as a primer, using Superscript amplification kit. DD-PCR (differential display-PCR) was carried out in 20 μl total volume, and included 0.8 μM of one of the 3′ primers (dT)12GC, (dT)12CC or (dT)12, the arbitrary 5′ primer 5′-GGACAGCTTC-3′, 2.5 μM dNTP, 2.5 mM MgCl2, 2 μCi α-^33P-[dATP] (3000 Ci/mM), cDNA prepared from 50 ng total RNA, and 2.5 units of Taq DNA polymerase. The DD-PCR reaction was started with 3 minutes incubation at 94° C., followed with 40 cycles of 30 sec at 94° C., 2 minutes at 40° C. and 30 sec at 72° C., and finally 5 minutes at 72° C. Then, 10 μl of the reaction was mixed with 10 μl of 95% formamide containing 0.05% bromophenol blue and 0.05% xylene cyanol, and incubated for 5 minutes at 75° C. An aliquot (6 μl) was analysed on a denatured DNA sequencing gel. The gel was dried and exposed to Phosphoimage Analyzer (Fujix) or to X-ray film. The DNA bands expressed differentially upon MDMA-treatment were identified, cut from the gel, socked in H2O, boiled for 15 minutes and centrifuged (10000 g). Ten μl of the supernatant was used as template to re-amplify the band of interest, with the same primers and PCR conditions described for DD-PCR except that 25 μM dNTP and no isotopes were used. Ten μl of the PCR reaction was run on a 2% agarose gel. The band of the predicted size was excised, purified with DNA extraction kit, and cloned into pGEM-T Easy Vector. Plasmid DNA from successful clones was purified with Plasmid Mini Kit and subjected for sequencing (Biological Services, Weizmann Institute of Science). Sequence data were compared with GeneBank (NCBI).
(§3) Total RNA from frontal cortex (“FC”) and midbrain (“MB”) of saline—(denoted as “−”) and MDMA-treated (denoted as “+”) mice (one i.p. injection, 10 mg/kg, 2 hr) were used for DD-PCR analysis. The random primers used were dT12CC for MC1, dT12GG for MG3, MG4, MG5 and MG6, and dT18 for G1. Different but characteristic cDNA products were obtained with each one of the three primers. […] Some of the altered expression levels are common for both brain regions while others are specific either to the frontal cortex or the midbrain.

MG3 cDNA = experiment: DD-PCR analysis of brain mRNA of MDMA-treated mice; design: key: − (lowest); ++ (highest); conditions: MDMA one i.p. injection, 10 mg/kg, 2 hr
Method: as §1, §2, §3

MC2 cDNA = experiment: DD-PCR analysis of brain mRNA of MDMA-treated mice; design: key: − (lowest); ++ (highest); conditions: MDMA one i.p. injection, 10 mg/kg, 2 hr
Method: as §1, §2, §3

MG2 cDNA = experiment: DD-PCR analysis of brain mRNA of MDMA-treated mice; design: key: − (lowest); ++ (highest); conditions: MDMA one i.p. injection, 10 mg/kg, 2 hr; frontal cortex
Method: as §1, §2, §3

mGAT1 [1] = experiment: Semi-quantitative RT-PCR of brain mRNA of MDMA-treated mice; conditions: for Increase of mGAT1 expression, estimated by scanning: MDMA 10 mg/kg i.p., 2 hr, GAPDH as standard
mGAT2 = experiment: as above
mGAT1 [2] = experiment: Real-time PCR analysis of midbrain RNA of MDMA-treated mice
Method: as §1
(§4) Real-time PCR analysis was performed with the LightCycler System (Roche Molecular Biochemicals) and LightCycler-FastStart DNA Master SYBR Green I, according to the manufacturer instructions. Reactions (in 20 μl) included template cDNA prepared from 0.1-0.5 μg total RNA, 3 mM MgCl2 and 0.25-0.5 μM primers. Buffer, dNTP mixture (with dUTP instead of dTTP), Taq DNA polymerase, and SYBR Green I dye were included in the ‘Hot start’ reaction as recommended. Typical protocol was as follows. Ten minutes at 95° C. followed by 40 cycles of amplification, starting with 15 sec at 95° C., 10 sec at 60° C. and 10 sec at 72° C. The extension period varied with each specific primer, depending on the product length (about 1 sec/25 bp).
(§5) For quantification analysis, 3-5 standards of PCR products with known concentration were amplified under the same cycling conditions, and GAPDH was amplified as an internal control to correct for variations in the amount of cDNA. Real-time PCR products of each assay were also subjected to agarose gel electrophoresis, to further confirm amplification specificity. Quantitation was assessed with LightCycler Data Analysis (LCDA) software by the Fit Points method. Melting curve of the cDNA product was determined by incubation at 95° C. for 0 sec, 15 sec at 65° C. and 0 sec at 95° C., followed by a cooling of 30 sec at 40° C.
(§6) RNA extracted from the midbrain of saline- or MDMA-treated mice was analyzed with the LightCycler System, using specific primers for mGAT1 and mGAT4, along with GAPDH as a control (see Materials and Methods). […] (FIG. 4F).

GAPDH = experiment: as above
Method: as §1, §4, §5, §6

mGAT4 [3] = experiment: as above
Method: as §1, §4, §5, §6

MC1 cDNA = experiment: DD-PCR analysis of brain mRNA of MDMA-treated mice; design: key to Intensity of MC1 cDNA band, MDMA, F. Cortex / Intensity of MC1 cDNA band, MDMA, MidBrain: − (lowest); ++ (highest); conditions: 2 hr
Method: as §1
as §2, with “Ten μl of the supernatant was used as template to re-amplify the band of interest, with the same primers and PCR conditions described for DD-PCR except that 25 μM dNTP and no isotopes were used. Ten μl of the PCR reaction was run on a 2% agarose gel. The band of the predicted size was excised, purified with DNA extraction kit, and cloned into pGEM-T Easy Vector. Plasmid DNA from successful clones was purified with Plasmid Mini Kit and subjected for sequencing (Biological Services, Weizmann Institute of Science). Sequence data were compared with GeneBank (NCBI).” left out

mGAT4 [4] = experiment: Semi-quantitative RT-PCR of brain mRNA of MDMA-treated mice; conditions: for Increase of mGAT4 mRNA level: MDMA 10 mg/kg i.p., 2 hr, GAPDH for semi-quantitation; for Return of mGAT4 increase to control levels: within 2 days
[5] = MDMA one i.p. injection, 10 mg/kg, frontal cortex
[6] = both frontal cortex and midbrain, MDMA 10 mg/kg i.p.

CNC(C)Cc1ccc2c(c1)OCO2 (stereo not shown) [MDMA, 3,4-Methylenedioxymethamphetamine]
Intensity of G1 cDNA band, MDMA, F. Cortex (G1 cDNA (mGAT1); [5]): ++ | Change of intensity of cDNA G1 in MDMA-treated mice (FIG. 1C) (G1 cDNA (mGAT1); [6]): increased | MDMA-induced changes of MC2, MG2 and MG4 expression (MC2, MG2 and MG4 cDNAs): 1.5-2.2 fold | GAT1 protein, fold of control (mGAT1 protein; frontal cortex): 1.3 fold | GAT1 protein, fold of control (mGAT1 protein; midbrain): 1.0 fold | Induction of GAT1 protein upon MDMA treatment (mGAT1 protein; SERT −/− mice): no significant induction | Increase of GAT1 immunoreactivity (mGAT1 protein; frontal cortex): 2.1 fold | Increase of GAT1 immunoreactivity (mGAT1 protein; midbrain): 2.4 fold | Intensity of MG5 cDNA band, MDMA, F. Cortex (MG5 cDNA; frontal cortex): − | Intensity of MG5 cDNA band, MDMA, MidBrain (MG5 cDNA; midbrain): − | Intensity of MG3 cDNA band, MDMA, F. Cortex (MG3 cDNA; frontal cortex): − | Intensity of MG3 cDNA band, MDMA, MidBrain (MG3 cDNA; midbrain): − | Intensity of MC2 cDNA band, MDMA, MidBrain (MC2 cDNA): ++ | Intensity of MG2 cDNA band, MDMA, F. Cortex (MG2 cDNA): ++ | Increase of mGAT1 expression, estimated by scanning (mGAT1 [1]; frontal cortex): 1.58 fold | Increase of mGAT1 expression, estimated by scanning (mGAT1 [1]; midbrain): 1.74 fold | Time for which MDMA effect on mGAT1 expression sustained (mGAT1 [1]; time course 2 hours-7 days after treatment): 7 days | Effect on mGAT2 expression (mGAT2; MDMA 10 mg/kg i.p., 2 hr, frontal cortex and midbrain): insignificant effect | mGAT2 expression in time course (mGAT2; from 2 hours to 7 days after treatment): did not change | Net increase in mGAT1 levels (corrected for GAPDH) (mGAT1 [2]): 5.2 fold | mGAT1 expression after MDMA treatment (real-time PCR amount) (mGAT1 [2]; control 3.43×10^−5 pmole): 0.000211 pmol | Increase of GAPDH level (GAPDH): 19% | GAPDH level after MDMA treatment (real-time PCR amount) (GAPDH; control 514×10^−5 pmole): 0.00612 pmol | Increase in mGAT4/GAPDH ratio compared with controls (mGAT4 [3]): 1.52 fold | Intensity of MC1 cDNA band, MDMA, F. Cortex (MC1 cDNA; [5]): − | Intensity of MC1 cDNA band, MDMA, MidBrain (MC1 cDNA; MDMA one i.p. injection, 10 mg/kg, midbrain): − | Change of cDNA band MC1 in MDMA-treated mice (FIG. 1B) (MC1 cDNA; [6]): profound decrease | Increase of mGAT4 mRNA level (mGAT4 [4]; frontal cortex): 4.6 fold | Return of mGAT4 increase to control levels (mGAT4 [4]; frontal cortex): partially | Increase of mGAT4 mRNA level (mGAT4 [4]; midbrain): 1.7 fold | Return of mGAT4 increase to control levels (mGAT4 [4]; midbrain): completely
